In patent US20080226596A1, “Therapeutic compositions and methods useful in treating hepatitis” (priority 2006, published 2008):
Entries after “also recorded” stand apart in the source; their conditions may differ.

What was measured:
PTP1B = target: T1, PTP1B (Homo sapiens, UniProt P18031); assay: In vitro PTPase assay, GST/PTP1B; type: biochemical; settings: compared with levamisole, pentamidine, ketoconazole
T1 construct: GST; purchased Upstate Biotechnology Inc. (Lake Placid, N.Y.)
Protocol: In vitro PTPase activities were measured using the commercial protein tyrosine phosphatase assay kit (Upstate Biotechnology, Inc. (“UBI”)) following established procedure known to one of skill in the art. This assay measures the in vitro dephosphorylation of a synthetic phosphotyrosine peptide of the sequence Arg-Arg-Leu-Ile-Glu-Asp-Ala-Gle-Tyr-Ala-Ala-Arg-Gly, wherein the tyrosine is phosphorylated (SEQ ID NO: 3). Briefly, 0.01 µg of GST/PTPase fusion proteins was incubated in 50 μL of Tris buffer (10 mM Tris, pH 7.4) containing different concentrations of inhibitors or chemicals (0-1,000 μg/ml) at 22° C. for 10 minutes, followed by addition of 0.2 mM of the phosphotyrosine peptide and incubation at 22° C. for 18 hours. 100 μL of Malachite Green solution was added and incubated for 5 minutes, and the absorbance at 660 nm was measured after 5 minutes.
In vitro PTPase assays were used to determine the effects of levamisole (Sigma), pentamidine (American Pharmaceutical Partners, Inc.), and ketoconazole (Sigma) on recombinant PTPases, following established procedures (Pathak et al., J. Imumol. 167, 3391 (2001); Pathak et al., Leukemia 16, 2285 (2002), Yi et al., J. Immunol. 169, 5978 (2002)) using a synthetic phosphotyrosine peptide or DiFMUP as the substrate as detailed above in section I.A.2.

DR cells = assay: DR lymphoma cell growth, MTT assay; type: cell-based, human; settings: 100 μg/ml, day 6
Protocol: For cell proliferation assays, cells were grown in 10% FCS culture medium containing various amounts of IFNs and/or sodium stibogluconate in 96 well plates and cultured at 37° C. for 3 or 6 days as indicated. The numbers of viable cells in proliferation assays were determined by MTT assays as described in Phatak et al., J. Immunol. 167, 3391 (2001).

Renca tumors = Renca tumors in Balb/c mice; type: in vivo; settings: end of treatment; listed as SSG
Protocol: Balb/c and athymic nude Balb/c mice (10 weeks old, female, Taconic Farms, Germantown, N.Y.) were inoculated (s.c.) at the flanks with Renca cells (10^6 cells/site). […] The dose of SSG was similar to the effective daily dose of the drug for the treatment of murine leishmaniasis (Murray, H. W., J. D. Berman, and S. D. Wright. 1988. Immunochemotherapy for intracellular Leishmania donovani infection: gamma interferon plus pentavalent antimony. J Infect Dis 157:973). Tumor volume was measured during the study period and calculated using the formula for a prolate spheroid (V=4/3×a2b) (Lindner, D. J., E. C. Borden, and D. V. Kalvakolanu. 1997. Synergistic antitumor effects of a combination of interferons and retinoic acid on human tumor cells in vitro and in vivo. Clin Cancer Res 3:931). Student's t test was used for assessing the significance of tumor volume differences among differential treatment groups. Mouse viability (daily) and body weights (weekly) were also recorded during the study period. At the end of the study, Renca tumors and major internal organs (heart, kidney, liver, lung and spleen) were harvested for histology and immunohistochemistry analysis.

PRL-3 = target: T2, PRL-3 (Homo sapiens, UniProt O75365); assay: In vitro PTPase assay, recombinant PRL-3, DiFMUP substrate; type: biochemical; settings: comparable conditions
T2 construct: GST (N); made in house; host or cells: DHSa (DH5a) bacteria
T2 sequence (O75365 whole entry): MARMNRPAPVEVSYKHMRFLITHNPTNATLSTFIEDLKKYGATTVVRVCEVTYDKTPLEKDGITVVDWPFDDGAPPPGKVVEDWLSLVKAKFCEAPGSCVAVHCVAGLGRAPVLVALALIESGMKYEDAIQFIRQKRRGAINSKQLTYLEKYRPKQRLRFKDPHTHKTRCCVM
Protocol: In vitro PTPase assays were used to determine the effects of compounds on recombinant PTPases, following established procedures using a synthetic phosphotyrosine peptide or DiFMUP as the substrate (Pathak et al., J. Imumol. 167, 3391 (2001)). Briefly, individual PTPases (0.1 µg/reaction) in 50 μL of PTPase buffer (50 mM Tris, pH 7.4) were incubated at 22° C. for 10 minutes or as indicated in the absence or presence of inhibitory compounds. Substrates (0.2 mM phosphotyrosine peptide) were then added and allowed to react at 22° C. for 18 hrs. PTPase activity of individual reactions was measured by adding 100 µL of malachite green solution (UBI) and then quantifying the amounts of free phosphate cleaved by the PTPase from the peptide substrate by spectrometry (OD660 nm). PTPase assays using DiFMUP as a substrate were conducted following a previously described procedure (Matter, et al., Biochem. Biophys. Res. Comm. 283, 1061 (2001)). Relative PTPase activities were calculated based on the formula: (PTPase activity in the presence of an inhibitory compound/PTPase activity in the absence of the compound)× 100%. To assess the reversibility of PTPase inhibition, GST fusion proteins of the PTPases bound on glutathione beads (Pharmacia) were pre-incubated with cold Tris buffer (50 mM Tris, pH 7.0) or Tris buffer containing the inhibitor at 4° C. for 30 minutes. The beads were then washed three times in cold Tris buffer or not washed prior to subjecting to in vitro PTPase assays.

A549 cells = assay: A549 lung cancer cell growth, MTT assay; type: cell-based, human; settings: 100 μg/ml, day 6
Protocol: NIH3T3 (Yi, et al., Blood 85, 87 (1995)), WM9 (Forsberg, et al., Proc. Nat. Acad Sci. USA 90, 393 (1993)), DU145 (Mickey, et al., Cancer Res. 37, 4049 (1977)), LoVo (Drewinko, et al., Cancer Res. 36, 467 (1976)), HEY (Buick, et al., Cancer Res. 45, 3668 (1985)), U251 (Yoshida, et al., Cancer 50, 410 (1982)), A549 (Giard, et al., J. Natl. Cancer Inst. 51, 1417 (1973)) and SK-N-SH (Helson, et al., Cancer Res. 35, 2594 (1975)) cell lines have been described and were cultured in RPMI 1640 supplemented with 10% fetal calf serum (FCS). For measurement of sodium stibogluconate effects on cell growth in vitro, cells were cultured in the absence (−) or presence (+) of various amounts of sodium stibogluconate for 6 days with viable cells quantified by MTT assays (Mosmann, J. Immunol. Methods 65, 55 (1983)). Percentages of growth inhibition by sodium stibogluconate were calculated (.+−.x

T1 sequence (P18031 whole entry, species assumed): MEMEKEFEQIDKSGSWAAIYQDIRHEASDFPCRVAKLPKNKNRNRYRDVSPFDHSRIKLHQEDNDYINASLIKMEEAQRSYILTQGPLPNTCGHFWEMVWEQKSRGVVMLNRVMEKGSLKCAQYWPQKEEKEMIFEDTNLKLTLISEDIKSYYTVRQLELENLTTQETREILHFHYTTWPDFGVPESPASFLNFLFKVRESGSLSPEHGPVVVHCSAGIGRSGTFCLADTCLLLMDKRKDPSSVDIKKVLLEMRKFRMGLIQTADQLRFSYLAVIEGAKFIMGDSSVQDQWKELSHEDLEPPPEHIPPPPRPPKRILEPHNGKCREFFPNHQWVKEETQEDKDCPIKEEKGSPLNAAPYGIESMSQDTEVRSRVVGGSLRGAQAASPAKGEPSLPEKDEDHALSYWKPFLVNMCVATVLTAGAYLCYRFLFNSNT

O.O.O.O.O.O.O.O.O.O=C([O-])[C@@H]1[O][Sb]2([O-])([O][Sb]34([OH])[O][C@H]([C@H](O)CO)[C@H]([O]3)[C@H](C(=O)[O-])[O]4)[O][C@H]([C@H](O)CO)[C@@H]1[O]2.[Na+].[Na+].[Na+] [sodium stibogluconate]
inhibition of PTP1B (PTP1B): only modestly effective | killing of DR cells (DR cells): complete or near complete killing | tolerance/survival of treated Balb/c mice (Renca tumors): tolerated; also recorded: all mice in the treatment group survived | inhibition of PRL-3 with DiFMUP substrate (PRL-3): also detected | killing of A549 cells (A549 cells): near-complete cell killing
